Experimental findings from ChEMBL document CHEMBL5113392, “Novel hybrid pyrrolidinedione-thiazolidinones as potential anticancer agents: Synthesis and biological evaluation” (Eur J Med Chem, 2022) are described below.

For orientation: GI50 means the concentration that inhibits growth by half. Broadly, the TGI is the concentration giving total growth inhibition.

Data set [1] has as its system SK-MEL-5. Description: Anticancer activity against human SK-MEL-5 cells assessed as lethality incubated for 48 hrs by SRB assay. In kind it is functional. To be noted: read-out: LC50 (the source's name). Background: Sulforhodamine B stains cellular protein and so reports cell mass.
For data set [2], the system named is SK-OV-3. The data set is described as follows: Anticancer activity against human SK-OV-3 cells assessed as cell growth inhibition incubated for 72 hrs by MTT assay. It counts as functional.
Data set [3] deals with SK-MEL-2. Description: Anticancer activity against human SK-MEL-2 cells assessed as lethality incubated for 48 hrs by SRB assay. In kind it is functional. To be noted: read-out: LC50 (the source's name).
Data set [4] concerns Jurkat. Description: Induction of DNA damage in human Jurkat cells assessed as olive tail moment at 1.5 uM incubated for 24 hrs by alkaline Comet assay. It counts as functional.
Data set [5] relates to HCT-116. Description: Induction of DNA damage in human HCT-116 cells assessed as tail DNA at 1 uM incubated for 2 hrs by alkaline Comet assay. In kind it is functional.
Data set [6] concerns 786-0. The data set is described as follows: Anticancer activity against human 786-0 cells assessed as lethality incubated for 48 hrs by SRB assay. In kind it is functional. To be noted: read-out: LC50 (the source's name).
Data set [7] deals with KM12. Description: Anticancer activity against human KM12 cells assessed as inhibition of cell growth at 10 uM incubated for 48 hrs by SRB assay. To be noted: KM12, 48 h, values are per cent of control. In kind it is functional.
Data set [8] has as its system HCT-116. The data set is described as follows: Induction of DNA damage in human HCT-116 cells assessed as olive tail moment at 1 uM incubated for 2 hrs by alkaline Comet assay. In kind it is functional.
Data set [9] concerns HCT-116. Description: Induction of DNA damage in human HCT-116 cell lysate assessed as olive tail moment at 1 uM incubated for 2 hrs in dark by Comet assay. In kind it is functional.
Data set [10] has as its system Salmon testes DNA. Description: Binding affinity to double stranded salmon sperm DNA assessed as increase in DNA oxidation level by measuring net change in absorbance at 10 uM incubated for 1 hr by UV based spectroscopic method. To be noted: Salmo salar. It counts as nucleic-acid assay.
Data set [11] deals with SK-MEL-5. The data set is described as follows: Anticancer activity against human SK-MEL-5 cells assessed as total growth inhibition incubated for 48 hrs by SRB assay. It counts as functional.
Data set [12] has as its system Salmon testes DNA. The data set is described as follows: Binding affinity to single stranded salmon sperm DNA assessed as increase in DNA oxidation level by measuring net change in absorbance at 10 uM incubated for 1 hr by UV based spectroscopic method. In kind it is nucleic-acid assay. To be noted: Salmo salar.
Data set [13] concerns ACHN. The data set is described as follows: Anticancer activity against human ACHN cells assessed as lethality incubated for 48 hrs by SRB assay. It counts as functional. To be noted: read-out: LC50 (the source's name).
The test system of data set [14] is Lymphocyte. Description: Induction of DNA damage in mitogen activated human peripheral blood lymphocytes assessed as tail DNA at 1.5 uM incubated for 24 hrs by alkaline Comet assay. In kind it is toxicity, cell-based.
The test system of data set [15] is CAKI-1. Description: Anticancer activity against human CAKI-1 cells assessed as inhibition of cell growth at 10 uM incubated for 48 hrs by SRB assay. In kind it is functional. To be noted: CAKI-1, 48 h, values are per cent of control.
In data set [16] the test system is OVCAR-5. Description: Anticancer activity against human OVCAR-5 cells assessed as lethality incubated for 48 hrs by SRB assay. To be noted: read-out: LC50 (the source's name). It counts as functional.
For data set [17], the system named is A549. Description: Anticancer activity against human A549 cells assessed as growth inhibition incubated for 48 hrs by SRB assay. In kind it is functional.
Data set [18] deals with KM12. Description: Anticancer activity against human KM12 cells assessed as total growth inhibition incubated for 48 hrs by SRB assay. In kind it is functional.
In data set [19] the test system is HCT-116. The data set is described as follows: Induction of DNA damage in human HCT-116 […] assessed as tail DNA at 1 uM incubated for 2 hrs in dark by Comet assay. It counts as functional.
For data set [20], the system named is Lymphocyte. Description: Induction of DNA damage in mitogen activated human peripheral blood lymphocytes assessed as olive tail moment at 1.5 uM incubated for 24 hrs by alkaline Comet assay. It counts as toxicity, cell-based.
Data set [21] concerns UO-31. The data set is described as follows: Anticancer activity against human UO-31 cells assessed as lethality incubated for 48 hrs by SRB assay. To be noted: read-out: LC50 (the source's name). It counts as functional.
The test system of data set [22] is Jurkat. The data set is described as follows: Induction of DNA damage in human Jurkat cells assessed as proapoptotic inter-nucleosomal fragmentation at 1.5 uM for 24 hrs by Agarose gel electrophoresis analysis. It counts as functional, cell-based.
In data set [23] the test system is Jurkat. The data set is described as follows: Induction of apoptosis in human Jurkat cells assessed as increase in Bax level at 1.5 uM for 24 hrs by Western blot analysis. In kind it is functional, cell-based. On the technique in general: Immunoblotting shows a protein as a band on a membrane.
Data set [24] has as its system Jurkat. Description: Induction of apoptosis in human Jurkat cells assessed as decrease in Bcl-2 level at 1.5 uM for 24 hrs by Western blot analysis. In kind it is functional, cell-based.
The test system of data set [25] is Jurkat. Description: Induction of apoptosis in human Jurkat cells assessed as increase in cleaved capase-3 level at 1.5 uM for 24 hrs by Western blot analysis. It counts as functional, cell-based.
The subject of data set [26] is KB 3-1. Description: Anticancer activity against human KB 3-1 cells assessed as cell growth inhibition incubated for 72 hrs by MTT assay. It counts as functional. Background: Formazan colour is commonly taken as a measure of viable cells.
Data set [27] has as its system DU-145. The data set is described as follows: Anticancer activity against human DU-145 cells assessed as total growth inhibition incubated for 48 hrs by SRB assay. In kind it is functional.
Data set [28] deals with Jurkat. Description: Induction of DNA damage in human Jurkat cells assessed as tail DNA at 1.5 uM incubated for 24 hrs by alkaline Comet assay. It counts as functional.
The subject of data set [29] is NCI-H522. Description: Anticancer activity against human NCI-H522 cells assessed as inhibition of cell growth at 10 uM incubated for 48 hrs by SRB assay. To be noted: NCI-H522, 48 h, values are per cent of control. In kind it is functional.
The subject of data set [30] is Lymphocyte. Description: Induction of DNA damage in mitogen activated human peripheral blood lymphocytes assessed as olive tail moment at 3.5 uM incubated for 24 hrs by alkaline Comet assay. In kind it is toxicity, cell-based.
Data set [31] deals with Jurkat. Description: Induction of DNA damage in human Jurkat cells assessed as proapoptotic inter-nucleosomal fragmentation at 3.5 uM for 24 hrs by Agarose gel electrophoresis analysis. In kind it is functional, cell-based.
The subject of data set [32] is Jurkat. The data set is described as follows: Induction of apoptosis in human Jurkat cells assessed as increase in Bax level at 3.5 uM for 24 hrs by Western blot analysis. In kind it is functional, cell-based.
Data set [33] has as its system Jurkat. Description: Induction of DNA damage in human Jurkat cells assessed as tail DNA at 3.5 uM incubated for 24 hrs by alkaline Comet assay. In kind it is functional.
The subject of data set [34] is Jurkat. Description: Induction of DNA damage in human Jurkat cells assessed as olive tail moment at 3.5 uM incubated for 24 hrs by alkaline Comet assay. It counts as functional.
The test system of data set [35] is Jurkat. Description: Induction of apoptosis in human Jurkat cells assessed as decrease in Bcl-2 level at 3.5 uM for 24 hrs by Western blot analysis. In kind it is functional, cell-based.
Data set [36] concerns OVCAR-3. Description: Anticancer activity against human OVCAR-3 cells assessed as inhibition of cell growth at 10 uM incubated for 48 hrs by SRB assay. In kind it is functional. To be noted: OVCAR-3, 48 h, values are per cent of control.
For data set [37], the system named is Jurkat. Description: Induction of apoptosis in human Jurkat cells assessed as increase in cleaved capase-3 level at 3.5 uM for 24 hrs by Western blot analysis. In kind it is functional, cell-based.
The test system of data set [38] is Lymphocyte. Description: Induction of DNA damage in mitogen activated human peripheral blood lymphocytes assessed as tail DNA at 3.5 uM incubated for 24 hrs by alkaline Comet assay. It counts as toxicity, cell-based.

Active and inactive are the calls of the source. No cut-off for these calls is given here.

In the case of `O=C1CC(N2C(=O)/C(=C/C(Cl)=C/c3ccc([N+](=O)[O-])cc3)SC2=S)C(=O)N1c1ccc(O)cc1` (configuration not stated), the CC50 in data set [1] was found to be 6.97 µM; in data set [3] it was 54.3 µM; in data set [6] it was 25.5 µM; in data set [13] it was 5.59 µM; in data set [16] it was 7.16 µM; in [21] it was 5.78 µM. In addition, the values for the concentration for 50% growth inhibition (GI50) in data set [2], in data set [17] and in data set [26] were more than 100 µM, 3.11 µM and 8 µM, respectively. Besides, the Activity in data set [4] turned out to be 8.63%; in data set [5] it was 26.5%; in data set [8], 9.84%; in [9], 3.05%; in data set [14] it was 2.92%; in data set [19], 13.1%. Moreover, the Activity is 0.28% in [20] and 53.4% in data set [28]. In addition, the figures for the growth, % of control at 10 µM in [7] and in data set [15] were -72.4% and -71.4%, respectively. Besides, the result in data set [10], in data set [12], in [22], in [23], in [24] and in data set [25] was Active. In addition, the values for the TGI in [11], in data set [18] and in data set [27] were 3.66 µM, 4.64 µM and 3.37 µM, respectively.
In the case of `O=C1CC(N2C(=O)/C(=C/C(Cl)=C/c3ccc([N+](=O)[O-])cc3)SC2=S)C(=O)N1c1ccc(Cl)cc1` (configuration not stated), the GI50 came to 65.9 µM in data set [2] and 70.3 µM in data set [26]. The CC50 in [3] and in data set [21] was more than 100 µM in each case. Moreover, the growth, % of control at 10 µM in data set [29] is -26.4%; in data set [36], -35.4%. Moreover, the Activity in data set [30] is on record as 0.86%; in data set [33], 48.35%; in [34], 18.1%; in data set [38], 4.25%. Moreover, the outcome in data set [31], in [32], in [35] and in [37] was Active.
